# Experimental data: US20230390183A1, “METHOD FOR IMPROVING SKIN CONDITION BY CRASSOCEPHALUM RABENS EXTRACT” (Greenyn Biotechnology Co., Ltd, priority 2022, published 2023)
# Tested on: skin (moisture, wrinkle, collagen density)
# Assay: Comparison of different functional components for skin-improving efficacy
# Format: in vivo, human
# Description: In addition to the Crassocephalum rabens extract of the present invention, some other commercially available materials were collected, including oral hyaluronic acid (for continuous use of 20 days), ceramide, and collagen (for continuous use of 6 weeks), to compare their effects in maintaining skin hydrated, reducing wrinkles, and increasing collagen.
substance,measurement,setting,value
hyaluronic acid [Oral hyaluronic acid],Moisture (%),continuous use of 20 days,+21.5%
same,Wrinkle (%),continuous use of 20 days,−12.5%
ceramide,Moisture (%),no duration of use printed,+2.7%
same,Wrinkle (%),no duration of use printed,−5.8%
collagen,Moisture (%),continuous use of 6 weeks,+25.5%
same,Wrinkle (%),continuous use of 6 weeks,No significant
